The values that follow come from ChEMBL document CHEMBL1149680, “Unique spirocyclopiperazinium salt. Part 4: modification of dispirocyclopiperazinium (DSPZ) salts as analgesics” (Bioorg Med Chem Lett, 2007).

In test [1] the test system is Mus musculus. Kind of test: Analgesic activity in mouse assessed as latency time at 0.04 mmol/kg, sc by hot plate method relative to control. Format: functional.
In test [2] the test system is Mus musculus. Put plainly: Analgesic activity against acetic acid-induced writhing in mouse at 0.04 mmol/kg, sc relative to control. Format: functional. A general note: Writhing tests count abdominal constrictions after an irritant is injected.

For the compound `C(CN1CC[N+]2(CCCC2)CC1)CN1CC[N+]2(CCCC2)CC1.[Br-].[Br-]`, the Activity in the test with Mus musculus [1] was found to be 64.2%. In the test on Mus musculus [2], this compound returned an inhibition in vivo at 40 µmol/kg of 81%.

As usually defined, the inhibition in vivo is how much of the control response was suppressed.
